From patent US8269012B2, “Aminopyrazole triazolothiadiazole inhibitors of c-met protein kinase” (Vertex Pharmaceuticals Incorporated, priority 2009, dated 2012) come the findings set out here.

Molecules are shown by their SMILES.

Assay [1] relates to SNU-5 gastric cancer cells. Briefly: Inhibition of tumor growth of subcutaneously implanted SNU-5 cells in SCID mice. The following applies: all three dose levels tested (3, 10, 30 mg/kg/day). The assay is classed as in vivo. As for the experimental part:
Compound 3 was investigated for its ability to inhibit tumor growth of subcutaneously implanted SNU-5 gastric cancer cells in severe combined immunodeficient (SCID) mice. SNU-5 cells (CRL-5973, American Type Culture Collection, Manassas, Va.) were cultured in ISCOVE's Modified Dulbecco's Medium (IMDM) (Invitrogen, Carlsbad, Calif.) supplemented with 10% fetal bovine serum (FBS) (Hyclone, Logan, Utah), 100 units/mL of penicillin, […] of streptomycin (Invitrogen, Carlsbad, Calif.), and 2 mM L-glutamine. Cells were cultured for fewer than 4 passages prior to implantation. Female SCID mice (Fox Chase SCID, CB-17, mice weighing 17 to 19 g obtained from Charles River Laboratories, Wilmington, MA) were injected subcutaneously (s.c.) with 5×10^6 SNU-5 cells into the right dorsal axillary region on Day 0. […]
Compound 3, formulated in a vehicle containing 30% (w/v) Propylene Glycol and 10% Solutol (Sigma-Aldrich, St Louis, Mo.) as a suspended homogenous form, was administered orally (p.o.) once daily (QD) at total daily doses of 3, 10, and 30 mg/kg/day for 14 days. Tumor volumes (calculated using the ellipsoid formula, […], where length and width represented the largest and smallest dimensions of the tumor, respectively) were recorded for two weeks after the initiation of treatment. […]

The test system of assay [2] is A549HGF cells. Briefly: Inhibition of tumor metastasis to the lungs, subcutaneous A549HGF tumors in SCID mice. The assay is classed as in vivo. The protocol: Compound 3 was investigated for its ability to inhibit the metastasis of subcutaneously implanted tumors to the lungs of severe combined immunodeficient (SCID) mice. Accordingly, A549 cells (A549HGF-1m1115, transfected with hepatocyte growth factor, luciferase, and green fluorescent protein) were cultured in RPMI1640 medium (Invitrogen, Carlsbad, Calif.) supplemented with 10% fetal bovine serum (FBS) (Hyclone, Logan, Utah), 100 units/mL of penicillin, […] of streptomycin (Invitrogen, Carlsbad, Calif.), and 2 mM L-glutamine for fewer than 4 passages prior to implantation. […]
Female SCID mice were injected subcutaneously (s.c.) with 5×10^6 A549HGF cells into the right dorsal axillary region on Day 0. […] Ectopic tumor measurements were recorded twice a week for 3 weeks after the initiation of treatment.
In order to evaluate the anti-metastatic potential of Compound 3, at the termination of the study all animal lung tissues were harvested and lysed by homogenization for ex vivo quantification via luciferase luminescence.

With `Cn1cc(Nc2nn3c(C(F)(F)c4ccc5ncccc5c4)nnc3s2)cn1` [Compound 3, 3-(Difluoro(quinolin-6-yl)methyl)-N-(1-methyl-1H-pyrazol-4-yl)-[1,2,4]triazolo[3,4-b][1,3,4]thiadiazol-6-amine], in assay [1], the anti-tumor activity result was “significant and dose-dependent anti-tumor activity”. Besides, the “formation of lung metastases” value in assay [2] (60 mg/kg/day compared to vehicle controls, p<0.02) was “significantly inhibits the formation of lung metastases”. The “change in primary A549 tumor cell growth at the site of implantation vs vehicle” value in assay [2] (30 or 60 mg/kg/day p.o. QD, 22 days) was “no significant change”.
